Experimental data from patent publication US4500708A, “Benzothiazine derivatives” (G. D. Serle & Co., priority 1984, dated 1985).

How the values were obtained:
[1] = Food intake test (food-deprived rats); assay type: in vivo, Male Sprague-Dawley derived rats
Procedure: (§1) Male Sprague-Dawley derived rats, Charles River Breeders (Portage, MI), weighing between 200-400 grams at the time of testing, were employed in the food intake studies and water intake studies. The rats were housed individually and kept on a 12 hour light-dark light cycle. The room temperature ranged between 23°-25° C.
The rats employed in food intake testing were food deprived on the day preceding testing and were divided into experimental groups that were matched on the basis of average daily food intake and body weight. At approximately 24 hours post-deprivation, the rats were administered a test sample containing as the active ingredient a compound of the present invention. All test samples employed herein were prepared and homogenized in a vehicle of normal saline (to which a few drops of PG/Tween 80 was added). The test samples were administered at an injection volume of 2 ml./kg, unless otherwise stated. Thirty minutes following administration of the test samples, pre-weighed food jars, containing ground meal, were placed in the rats' cages. (Prior to testing the rats were given ground meal for a minimum of 3 days to familiarize the rats with this food.) After 1, 2 and 6 hours of food access, the jars were removed, weighed and returned to the rats' cages providing a 1, 2 and 6 hour intake measurement. The results obtained are represented in Table I. A student t test was used for making statistical comparisons, and the p-values are based upon two-tailed comparisons. The compound employed as the active ingredient of the test sample is indicated by the example number which describes its preparation.

[2] = Water intake test (water-deprived rats); assay type: in vivo, Male Sprague-Dawley derived rats; details: for Water Intake as a % of Control, 15 m: 15 minutes; for Water Intake as a % of Control, 30 m: 30 minutes; for Water Intake as a % of Control, 45 m: 45 minutes; for Water Intake as a % of Control, 60 m: 60 minutes; for Water Intake as a % of Control, 120 m: 120 minutes
Procedure: as §1
The rats employed in water intake testing were water deprived for 1 day and then maintained on a restricted water schedule. Water was available for two hours on the first day post water deprivation and for 1 hour each day afterwards for a minimum of 1 week. Using drinking tubes (50 ml. graduated cylinders), water intake was measured for at least 3 consecutive days prior to testing. On the day preceding testing, rats were divided into different experimental groups that were matched on the basis of avg. 0-15 min. water intake and body weight. On the day of testing, a test sample, containing as the active ingredient the compound prepared in Example 2, was administered. […] Food was removed from the animal at the start of the drinking test. A student t test was used for making statistical comparisons, and the p-values are based upon two-tailed comparisons.

[3] = 32.0 mg/kg i.g., injection volume 3.0 ml./kg
[4] = 75.0 mg/kg i.g., injection volume 3.0 ml./kg

For O=c1c(-c2ccc(Cl)cc2)c2c(cn1CO)Sc1ccccc1N2 [Example 1, 4-(4-chlorophenyl)-2-(hydroxymethyl)-5H-pyrido[3,4-b][1,4]benzothiazin-3(2H)-one], the “Food Intake % of control, 1 Hr.” value ([1]; 10.0 mg/kg i.g.) was 109.8 % of control, the “Food Intake % of control, 2 Hr.” value ([1]; 10.0 mg/kg i.g.) was 104.5 % of control and the “Food Intake % of control, 6 Hr.” value ([1]; 10.0 mg/kg i.g.) was 92.1 % of control. For the same compound, the “Food Intake % of control, 1 Hr.” value ([1]; 32.0 mg/kg i.g.) was 90.2 % of control, the “Food Intake % of control, 2 Hr.” value ([1]; 32.0 mg/kg i.g.) was 86.6 % of control and the “Food Intake % of control, 6 Hr.” value ([1]; 32.0 mg/kg i.g.) was 86.5 % of control. For the same compound, the “oral appetite suppressant activity” value [1] was “possess oral appetite suppressant activity”.
In the case of CCCC(=O)OCn1cc2c(c(-c3ccc(Cl)cc3)c1=O)Nc1ccccc1S2 [Example 2, 4-(4-chlorophenyl)-2-[(1-oxobutoxy)methyl]-5H-pyrido[3,4-b][1,4]benzothiazin-3-(2H)-one], the “Food Intake % of control, 1 Hr.” value ([1]; 1.0 mg/kg i.p.) is reported as 87.9 % of control, the “Food Intake % of control, 2 Hr.” value ([1]; 1.0 mg/kg i.p.) is reported as 90.9 % of control and the “Food Intake % of control, 6 Hr.” value ([1]; 1.0 mg/kg i.p.) is reported as 100.0 % of control. The “Food Intake % of control, 1 Hr.” value ([1]; 3.2 mg/kg i.p.) was 57.6 % of control, the “Food Intake % of control, 2 Hr.” value ([1]; 3.2 mg/kg i.p.) was 76.6 % of control and the “Food Intake % of control, 6 Hr.” value ([1]; 3.2 mg/kg i.p.) was 91.0 % of control. For the same compound, the “Food Intake % of control, 1 Hr.” value ([1]; 10.0 mg/kg i.g.) was 85.7 % of control, the “Food Intake % of control, 2 Hr.” value ([1]; 10.0 mg/kg i.g.) was 93.6 % of control and the “Food Intake % of control, 6 Hr.” value ([1]; 10.0 mg/kg i.g.) was 92.5 % of control. The “Food Intake % of control, 1 Hr.” value ([1]; 10.0 mg/kg i.p.) was 39.4 % of control, the “Food Intake % of control, 2 Hr.” value ([1]; 10.0 mg/kg i.p.) was 61.0 % of control and the “Food Intake % of control, 6 Hr.” value ([1]; 10.0 mg/kg i.p.) was 88.1 % of control. For the same compound, the “Food Intake % of control, 1 Hr.” value ([1]; 32.0 mg/kg i.g.) was 57.1 % of control, the “Food Intake % of control, 2 Hr.” value ([1]; 32.0 mg/kg i.g.) was 74.4 % of control and the “Food Intake % of control, 6 Hr.” value ([1]; 32.0 mg/kg i.g.) was 87.9 % of control. The “Food Intake % of control, 1 Hr.” value ([1]; 32.0 mg/kg i.p.) was 30.3 % of control, the “Food Intake % of control, 2 Hr.” value ([1]; 32.0 mg/kg i.p.) was 40.3 % of control and the “Food Intake % of control, 6 Hr.” value ([1]; 32.0 mg/kg i.p.) was 70.3 % of control. The “oral appetite suppressant activity” value [1] was “possess oral appetite suppressant activity”, the “Water Intake as a % of Control, 15 m” value ([2]; 10.0 mg/kg i.g.) was 96.4 % of Control and the “Water Intake as a % of Control, 30 m” value ([2]; 10.0 mg/kg i.g.) was 98.3 % of Control. For the same compound, the “Water Intake as a % of Control, 45 m” value ([2]; 10.0 mg/kg i.g.) was 99.2 % of Control, the “Water Intake as a % of Control, 60 m” value ([2]; 10.0 mg/kg i.g.) was 100.0 % of Control and the “Water Intake as a % of Control, 120 m” value ([2]; 10.0 mg/kg i.g.) was 103.7 % of Control. The “Water Intake as a % of Control, 15 m” value ([2]; 18.0 mg/kg i.g.) was 89.2 % of Control, the “Water Intake as a % of Control, 30 m” value ([2]; 18.0 mg/kg i.g.) was 89.1 % of Control and the “Water Intake as a % of Control, 45 m” value ([2]; 18.0 mg/kg i.g.) was 88.6 % of Control. For the same compound, the “Water Intake as a % of Control, 60 m” value ([2]; 18.0 mg/kg i.g.) was 92.0 % of Control, the “Water Intake as a % of Control, 120 m” value ([2]; 18.0 mg/kg i.g.) was 94.8 % of Control and the “Water Intake as a % of Control, 15 m” value ([2]; 32.0 mg/kg i.g.) was 64.9 % of Control. The “Water Intake as a % of Control, 30 m” value ([2]; 32.0 mg/kg i.g.) was 69.7 % of Control, the “Water Intake as a % of Control, 45 m” value ([2]; 32.0 mg/kg i.g.) was 70.7 % of Control and the “Water Intake as a % of Control, 60 m” value ([2]; 32.0 mg/kg i.g.) was 75.2 % of Control. For the same compound, the “Water Intake as a % of Control, 120 m” value ([2]; 32.0 mg/kg i.g.) was 79.3 % of Control.
With CCCCC(=O)OCn1cc2c(c(-c3ccc(Cl)cc3)c1=O)Nc1ccccc1S2 [Example 3, 4-(4-chlorophenyl)-2-[(1-oxopentoxy)methyl]-5H-pyrido[3,4-b][1,4]benzothiazin-3(2H)-one] the “Food Intake % of control, 1 Hr.” value [1, 3] was 83.3 % of control, the “Food Intake % of control, 2 Hr.” value [1, 3] was 100.0 % of control and the “Food Intake % of control, 6 Hr.” value [1, 3] was 111.5 % of control. The “Food Intake % of control, 1 Hr.” value [1, 4] was 68.5 % of control, the “Food Intake % of control, 2 Hr.” value [1, 4] was 96.8 % of control and the “Food Intake % of control, 6 Hr.” value [1, 4] was 102.6 % of control. The “oral appetite suppressant activity” value [1] was “possess oral appetite suppressant activity”.
With O=c1c(-c2ccc(Cl)cc2)c2c(cn1CO)Sc1ccc(Cl)cc1N2 [Example 5, 7-chloro-4-(4-chlorophenyl)-2-(hydroxymethyl)-5H-pyrido[3,4-b][1,4]benzothiazin-3(2H)-one] the “Food Intake % of control, 1 Hr.” value ([1]; 75.0 mg/kg i.g.) was 89.9 % of control, the “Food Intake % of control, 2 Hr.” value ([1]; 75.0 mg/kg i.g.) was 96.1 % of control and the “Food Intake % of control, 6 Hr.” value ([1]; 75.0 mg/kg i.g.) was 83.1 % of control.
For CC(C)(C)C(=O)OCn1cc2c(c(-c3ccc(Cl)cc3)c1=O)Nc1ccccc1S2 [Example 9, 4-(4-chlorophenyl)-2-[(2,2-dimethyl-1-oxopropoxy)methyl]-5H-pyrido[3,4-b][1,4]benzothiazin-3(2H)-one], the “Food Intake % of control, 1 Hr.” value ([1]; 10.0 mg/kg i.g.) was 111.1 % of control, the “Food Intake % of control, 2 Hr.” value ([1]; 10.0 mg/kg i.g.) was 102.6 % of control and the “Food Intake % of control, 6 Hr.” value ([1]; 10.0 mg/kg i.g.) was 96.3 % of control. The “Food Intake % of control, 1 Hr.” value ([1]; 32.0 mg/kg i.g.) was 111.1 % of control, the “Food Intake % of control, 2 Hr.” value ([1]; 32.0 mg/kg i.g.) was 106.4 % of control and the “Food Intake % of control, 6 Hr.” value ([1]; 32.0 mg/kg i.g.) was 92.5 % of control.
